Experimental data: patent publication EP1660440B1, “ACYLOXYALKYL CARBAMATE PRODRUGS, METHODS OF SYNTHESIS AND USE” (priority 2003, dated 2005)
Read-outs that look alike come from different tables or passages of the source.

Assays:
in vitro [1] = conditions: human, plasma
Procedure: (§1) The stabilities of prodrugs were evaluated in one or more in vitro systems using a variety of tissue preparations following methods known in the art. The chemical stability of prodrugs in aqueous buffers at pH's of 2.0, 7.4 and 8.0 were also measured. […] Each preparation was incubated with test compound at 37°C for one hour. Aliquots (50 µL) were removed at 0, 30, and 60 min and quenched with 0.1 % trifluoroacetic acid in acetonitrile.

physchem = conditions: aqueous buffer
Procedure: as §1

Pancreatin stability = format: in vitro ADME, porcine; conditions: pig; for metabolised at 1 h, 5 µM: pH 7.5, 1 % (w/v) pancreatin, read-out: % of Baclofen Released; for remaining at 1 h, 5 µM: read-out: % of Prodrug Remaining
Procedure: Pancreatin Stability: Stability studies were conducted by incubating prodrug (5 µM) with 1 % (w/v) pancreatin (Sigma, P-1625, from porcine pancreas) in 0.025 M Tris buffer containing 0.5 M NaCl (pH 7.5) at 37 °C for 60 min. The reaction was stopped by addition of 2 volumes of methanol. After centrifugation at 14,000 rpm for 10 min, the supernatant was removed and analyzed by LC/MS/MS.

in vitro [2] = conditions: human
Procedure: (§2) For stability studies, prodrug (5 µM) was incubated in Caco-2 homogenate S9 fraction (0.5 mg protein per mL) for 60 min at 37°C. Concentrations of intact prodrug and released baclofen were determined at zero time and 60 minutes using LC/MS/MS.

in vitro [3] = conditions: rat, plasma
Procedure: as §1

in vitro [4] = conditions: human; for remaining at 1 h, 2 µM: liver s9, % of Prodrug Remaining
Procedure: as §1

in vitro [5] = conditions: human, Caco-2
Procedure: (§3) For example, cellular permeability may be evaluated by examining the flux of a prodrug across a cultured polarized cell monolayer (e.g., Caco-2 cells). Caco-2 cells obtained from continuous culture (passage less than 28) were seeded at high density onto Transwell polycarbonate filters. Cells were maintained with DMEM / 10% fetal calf serum + 0.1 mM nonessential amino acids + 2 mM L-Gln, 5% CO2/ / 95% O2, 37°C until the day of the experiment. Permeability studies were conducted at pH 6.5 apically (in 50 mM MES buffer containing 1 mM CaCl2, 1mM MgCl2, 150 mM NaCl, 3 mM KCl, 1 mM NaH2PO4, 5 mM glucose) and pH 7.4 basolaterally (in Hanks' balanced salt solution containing 10 mM HEPES) in the presence of efflux pump inhibitors (250 µM MK-571, 250 µM Verapamil, 1 mM Ofloxacin). Inserts were placed in 12 or 24 well plates containing buffer and incubated for 30 min at 37C°. Prodrug (200 µM) was added to the apical or basolateral compartment (donor) and concentrations of prodrug and/or released parent drug in the opposite compartment (receiver) were determined at intervals over 1 hour using LC/MS/MS. Values of apparent permeability (Papp) were calculated using the equation: Papp = Vr (dC/dt)//(ACo) [formula]
(§4) Here Vr is the volume of the receiver compartment in mL; dC/dt is the total flux ofprodrug and parent drug (µM/s), determined from the slope of the plot of concentration in the receiver compartment versus time; Co is the initial concentration of prodrug in µM; A is the surface area of the membrane in cm^2.

in vitro [6] = conditions: rat; for remaining at 1 h, 2 µM: liver s9, % of Prodrug Remaining
Procedure: as §1

Caco-2 cells = conditions: human, Caco-2, 200 uM
Procedure: as §3, §4

[7] = Caco-2 cellular permeability of prodrugs; conditions: human
Procedure: as §3, §4

[8] = Rat Plasma, 2.0 µM, 37°C, after 60 min, 60 min
Procedure: as §1

[9] = Human Liver S9 (0.5 mg/mL), 2.0 µM, NADPH, 37°C, after 60 min, 60 min
Procedure: as §1

[10] = Human Plasma, 2.0 µM, 37°C, after 60 min, 60 min
Procedure: as §1

[11] = Rat Liver S9 (0.5 mg/mL), 2.0 µM, NADPH, 37°C, after 60 min, 60 min
Procedure: as §1

[12] = Caco-2 S9 (0.5 mg protein per mL), 5 µM, 37°C, after 60 min, 60 min
Procedure: as §2

[13] = pancreatin, 5 µM, pH 7.5, 37 °C, after 60 min
[14] = 1 % (w/v) pancreatin, 5 µM, pH 7.5, 37 °C, after 60 min

Compound | metabolised at 1 h, 2 µM (in vitro [1]) [%] | degraded at 1 h (physchem; pH 2) [%] | degraded at 1 h (physchem; pH 7.4) [%] | degraded at 1 h (physchem; pH 8) [%] | metabolised at 1 h, 5 µM (Pancreatin stability; [13]) [%] | remaining at 1 h, 5 µM (Pancreatin stability; [14]) [%] | metabolised at 1 h, 5 µM (in vitro [2]; s9) [%] | metabolised at 1 h, 2 µM (in vitro [3]) [%] | metabolised at 1 h, 2 µM (in vitro [4]; s9) [%] | Papp A→B at 200 µM (in vitro [5]) [×10⁻⁶ cm/s] | Papp B→A at 200 µM (in vitro [5]) [×10⁻⁶ cm/s] | metabolised at 1 h, 2 µM (in vitro [6]; s9) [%] | metabolised at 1 h, 2 µM (in vitro [1]; % of Baclofen Released) [%] | degraded at 1 h (physchem; pH 2, % of Baclofen Released) [%] | degraded at 1 h (physchem; pH 7.4, % of Baclofen Released) [%] | degraded at 1 h (physchem; pH 8, % of Baclofen Released) [%] | metabolised at 1 h, 5 µM (in vitro [2]; caco-2 homogenate s9) [%] | metabolised at 1 h, 2 µM (in vitro [4]; liver s9) [%] | remaining at 1 h, 2 µM (in vitro [4]) [%] | metabolised at 1 h, 2 µM (in vitro [6]; liver s9) [%] | other results
CCCC(=O)OCOC(=O)NC[C@H](CC(=O)O)c1ccc(Cl)cc1 [(16), Sodium 4-[(Butanoyloxymethoxy)carbonylamino]-(3R)-(4-chlorophenyl)-butanoate] | 20 | 0 | 0 | 0 | 84 | 1 | 100 | 40 | 100 | 6.1 | 1.2 | 100 | – | – | – | – | – | – | – | – | –
CC(C)C(=O)OCOC(=O)NC[C@H](CC(=O)O)c1ccc(Cl)cc1 [(18), Sodium 4-[(Isobutanoyloxymethoxy)carbonylamino]-(3R)-(4-chlorophenyl)-butanoate] | 27 | 0 | 0 | 0 | 91 | 2 | 100 | 60 | 100 | 6.4 | 5.6 | 100 | – | – | – | – | – | – | – | – | –
CCCC(=O)OC(OC(=O)NC[C@H](CC(=O)O)c1ccc(Cl)cc1)C(C)C (some centres unmarked) [(27)] | – | – | – | – | 9 | 71 | – | 88 | – | – | – | – | 12 | 0 | 0 | 1 | 67 | 79 | 8 | 89 | Ratio A-BB-A (Caco-2 cells): 6.9; Papp A→B at 200 µM [7]: 65 ×10⁻⁶ cm/s; Papp B→A at 200 µM [7]: 9.4 ×10⁻⁶ cm/s; remaining at 1 h, 2 µM (in vitro [6]): 0%
CC(=O)OC(C)OC(=O)NC[C@H](CC(=O)O)c1ccc(Cl)cc1 (stereo partly drawn) [(30), Sodium 4-[(1-Acetoxyethoy)carbonylamino]-(3R)-(4-chlorophenyl)-butanoate] | 8 | 0 | 1 | 3 | 9 | 90 | 70 | 42 | 87 | 8.7 | 2.3 | 85 | – | – | – | – | – | – | – | – | –
CCCC(=O)O[C@H](CCC)OC(=O)NC[C@H](CC(=O)O)c1ccc(Cl)cc1 [(86), Sodium 4-{[(1S)-Butanoyloybutoxy]carbonylamino}-(3R)-(4-chlorophenyl)-butanoate] | – | – | – | – | 76 | 4 | – | 83 | – | – | – | – | 13 | 0 | 1 | 2 | 95 | 87 | 2 | 92 | remaining at 1 h, 2 µM (in vitro [6]): 2%
CC(C)C(=O)O[C@@H](OC(=O)NC[C@H](CC(=O)O)c1ccc(Cl)cc1)C(C)C [(104), 4-{[(1S)-Isobutanoyloxyisobutoxy]carbonylamino}-(3R)-(4-chlorophenyl) -butanoic Acid] | – | – | – | – | – | – | – | – | – | – | – | – | – | 0 | 0 | – | – | – | – | – | remaining at 1 h, 5 µM (Pancreatin stability; pancreatin, pH 7.5): 90%; % of Baclofen Released [8]: 85%; % of Prodrug Remaining [8]: 14%; % of Baclofen Released [9]: 97%; % of Prodrug Remaining [9]: 3%; % of Baclofen Released [10]: 2%; % of Prodrug Remaining [10]: 98%; % of Baclofen Released [11]: 97%; % of Prodrug Remaining [11]: 3%; % of Baclofen Released [12]: 83%; % of Prodrug Remaining [12]: 17%; % of Prodrug Remaining (aqueous buffer pH 7.4, 37°C, after 60 min, 60 min): 100%; % of Baclofen Released (aqueous buffer pH 8.0, 37°C, after 60 min, 60 min): 0%; % of Prodrug Remaining (aqueous buffer, pH 2, 60 min): 100/0%; % of Prodrug Remaining (aqueous buffer, pH 8, 60 min): 100/0%
